How the values were obtained:
[1] = test system: HCV genotype 1a (H77 strain) replicon in HUH-7 cells; test: HCV replicon luciferase reporter assay, genotype 1a; format: cell-based; conditions: Hepatitis C virus, Huh-7, 72 h, HCV genotype 1a replicon luciferase assay, 3 days incubation, range class, read-out: LE_1a (EC50, range)
Outline: (§1)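 Replicon inhibition for both genotypes was measured as Renilla luciferase signal (EnduRen, 7.5 μM final, 2 h) after 3-day, 37° C exposure of replicon-bearing HUH-7 cells in 4% FCS DMEM, 0.5% DMSO. The 1b construct carries S1179I; the 1a H77 construct carries P1496L and S2204I. Twenty-point, 3-fold dilutions were fitted four-parametrically for EC50, and CC50 was taken from multiplexed Cell Titer-Blue.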

[2] = test system: HCV genotype 1b (Con1) replicon in HUH-7 cells; test: HCV replicon luciferase reporter assay, genotype 1b; format: cell-based; conditions: Hepatitis C virus, Huh-7, 72 h, HCV genotype 1b replicon luciferase assay, 3 days incubation, range class, read-out: LE_1b (EC50, range)
Outline: as §1

Row | Compound | EC50 [1] [nM] | EC50 [2] [nM]
1 | COCCOc1cnc(O[C@@H]2C[C@H]3C(=O)N[C@]4(C(=O)NS(=O)(=O)C5(C)CC5)C[C@H]4/C=C\CC[C@H](C)C[C@@H](C)[C@H](NC(=O)OC(C)(C)C)C(=O)N3C2)c2ccc(OC)cc12 [Compound 1152, tert-butyl ((2R,6S,7R,9S,13aS,14aR,16aS,Z)-2-((6-methoxy-4-(2-methoxyethoxyl)isoquinolin-1-yl)oxy)-7,9-dimethyl-14a-(((1-methylcyclopropyl)sulfonyl)carbamoyl)-5,16-dioxo-1,2,3,5,6,7,8,9,10,11,13a,14,14a,15,16,16a-hexadecahydrocyclopropa[e]pyrrolo[1,2-a][1,4]diazacyclopentadecin-6-yl)carbamate] | < 5.46 | < 5.46
2 | COCCOc1cnc(O[C@@H]2C[C@H]3C(=O)N[C@]4(C(=O)NS(=O)(=O)C5(C)CC5)C[C@H]4/C=C\CC[C@@H](C)C[C@@H](C)[C@H](NC(=O)OC(C)(C)C)C(=O)N3C2)c2ccc(OC)cc12 [Compound 1153, tert-butyl ((2R,6S,7R,9R,13aS,14aR,16aS,Z)-2-((6-methoxy-4-(2-methoxyethoxyl)isoquinolin-1-yl)oxy)-7,9-dimethyl-14a-(((1-methylcyclopropyl)sulfonyl)carbamoyl)-5,16-dioxo-1,2,3,5,6,7,8,9,10,11,13a,14,14a,15,16,16a-hexadecahydrocyclopropa[e]pyrrolo[1,2-a][1,4]diazacyclopentadecin-6-yl)carbamate] | < 5.46 | < 5.46
3 | COCCOc1cnc(O[C@@H]2C[C@H]3C(=O)N[C@]4(C(=O)NS(=O)(=O)C5CC5)C[C@H]4/C=C\CC[C@H](C)C[C@@H](C)[C@H](NC(=O)OC(C)(C)C)C(=O)N3C2)c2ccc(OC)cc12 [Compound 1154, tert-butyl ((2R,6S,7R,9S,13aS,14aR,16aS,Z)-14a-((cyclopropylsulfonyl)carbamoyl)-2-((6-methoxy-4-(2-methoxyethoxyl)isoquinolin-1-yl)oxy)-7,9-dimethyl-5,16-dioxo-1,2,3,5,6,7,8,9,10,11,13a,14,14a,15,16,16a-hexadecahydrocyclopropa[e]pyrrolo[1,2-a][1,4]diazacyclopentadecin-6-yl)carbamate] | < 5.46 | < 5.46
4 | COCCOc1cnc(O[C@@H]2C[C@H]3C(=O)N[C@]4(C(=O)NS(=O)(=O)C5CC5)C[C@H]4/C=C\CC[C@@H](C)C[C@@H](C)[C@H](NC(=O)OC(C)(C)C)C(=O)N3C2)c2ccc(OC)cc12 [Compound 1155, tert-butyl ((2R,6S,7R,9R,13aS,14aR,16aS,Z)-14a-((cyclopropylsulfonyl)carbamoyl)-2-((6-methoxy-4-(2-methoxyethoxyl)isoquinolin-1-yl)oxy)-7,9-dimethyl-5,16-dioxo-1,2,3,5,6,7,8,9,10,11,13a,14,14a,15,16,16a-hexadecahydrocyclopropa[e]pyrrolo[1,2-a][1,4]diazacyclopentadecin-6-yl)carbamate] | < 5.46 | < 5.46
5 | COCCOc1cnc(O[C@@H]2C[C@H]3C(=O)N[C@]4(C(=O)NS(=O)(=O)C5(C)CC5)C[C@H]4/C=C\CC[C@H](C)C[C@@H](C)[C@H](NC(=O)OC4COC4)C(=O)N3C2)c2ccc(OC)cc12 [Compound 1156, oxetan-3-yl((2R,6S,7R,9S,13aS,14aR,16aS,Z)-2-((6-methoxy-4-(2-methoxyethoxyl)isoquinolin-1-yl)oxy)-7,9-dimethyl-14a-(((1-methylcyclopropyl)sulfonyl)carbamoyl)-5,16-dioxo-1,2,3,5,6,7,8,9,10,11,13a,14,14a,15,16,16a-hexadecahydrocyclopropa[e]pyrrolo[1,2-a][1,4]diazacyclopentadecin-6-yl)carbamate] | 4.82 to 103 | 4.82 to 103
6 | COCCOc1cnc(O[C@@H]2C[C@H]3C(=O)N[C@]4(C(=O)NS(=O)(=O)C5(C)CC5)C[C@H]4/C=C\CC[C@@H](C)C[C@@H](C)[C@H](NC(=O)OC4COC4)C(=O)N3C2)c2ccc(OC)cc12 [Compound 1157, oxetan-3-yl ((2R,6S,7R,9R,13aS,14aR,16aS,Z)-2-((6-methoxy-4-(2-methoxyethoxyl)isoquinolin-1-yl)oxy)-7,9-dimethyl-14a-(((1-methylcyclopropyl)sulfonyl)carbamoyl)-5,16-dioxo-1,2,3,5,6,7,8,9,10,11,13a,14,14a,15,16,16a-hexadecahydrocyclopropa[e]pyrrolo[1,2-a][1,4]diazacyclopentadecin-6-yl)carbamate] | 4.82 to 103 | 4.82 to 103
7 | COCCOc1cnc(O[C@@H]2C[C@H]3C(=O)N[C@]4(C(=O)NS(=O)(=O)C5CC5)C[C@H]4/C=C\CC[C@H](C)C[C@@H](C)[C@H](NC(=O)OC4COC4)C(=O)N3C2)c2ccc(OC)cc12 [Compound 1158, oxetan-3-yl ((2R,6S,7R,9S,13aS,14aR,16aS,Z)-14a-((cyclopropylsulfonyl)carbamoyl)-2-((6-methoxy-4-(2-methoxyethoxyl)isoquinolin-1-yl)oxy)-7,9-dimethyl-5,16-dioxo-1,2,3,5,6,7,8,9,10,11,13a,14,14a,15,16,16a-hexadecahydrocyclopropa[e]pyrrolo[1,2-a][1,4]diazacyclopentadecin-6-yl)carbamate] | 4.82 to 103 | 4.82 to 103
8 | COCCOc1cnc(O[C@@H]2C[C@H]3C(=O)N[C@]4(C(=O)NS(=O)(=O)C5CC5)C[C@H]4/C=C\CC[C@@H](C)C[C@@H](C)[C@H](NC(=O)OC4COC4)C(=O)N3C2)c2ccc(OC)cc12 [Compound 1159, oxetan-3-yl ((2R,6S,7R,9R,13aS,14aR,16aS,Z)-14a-((cyclopropylsulfonyl)carbamoyl)-2-((6-methoxy-4-(2-methoxyethoxyl)isoquinolin-1-yl)oxy)-7,9-dimethyl-5,16-dioxo-1,2,3,5,6,7,8,9,10,11,13a,14,14a,15,16,16a-hexadecahydrocyclopropa[e]pyrrolo[1,2-a][1,4]diazacyclopentadecin-6-yl)carbamate] | 4.82 to 103 | 4.82 to 103
9 | COc1cnc(O[C@@H]2C[C@H]3C(=O)N[C@]4(C(=O)NS(=O)(=O)C5CC5)C[C@H]4/C=C\CC[C@H](C)C[C@@H](C)[C@H](NC(=O)OC(C)(C)C)C(=O)N3C2)c2cc(Cl)ccc12 [Compound 1160, tert-butyl ((2R,6S,7R,9S,13aS,14aR,16aS,Z)-2-((7-chloro-4-methoxyisoquinolin-1-yl)oxy)-14a-((cyclopropylsulfonyl)carbamoyl)-7,9-dimethyl-5,16-dioxo-1,2,3,5,6,7,8,9,10,11,13a,14,14a,15,16,16a-hexadecahydrocyclopropa[e]pyrrolo[1,2-a][1,4]diazacyclopentadecin-6-yl)carbamate] | 4.82 to 103 | < 5.46
10 | COc1cnc(O[C@@H]2C[C@H]3C(=O)N[C@]4(C(=O)NS(=O)(=O)C5CC5)C[C@H]4/C=C\CC[C@@H](C)C[C@@H](C)[C@H](NC(=O)OC(C)(C)C)C(=O)N3C2)c2cc(Cl)ccc12 [Compound 1161, tert-butyl ((2R,6S,7R,9R,13aS,14aR,16aS,Z)-2-((7-chloro-4-methoxyisoquinolin-1-yl)oxy)-14a-((cyclopropylsulfonyl)carbamoyl)-7,9-dimethyl-5,16-dioxo-1,2,3,5,6,7,8,9,10,11,13a,14,14a,15,16,16a-hexadecahydrocyclopropa[e]pyrrolo[1,2-a][1,4]diazacyclopentadecin-6-yl)carbamate] | < 5.46 | < 5.46
11 | COc1ccc2c(O[C@@H]3C[C@H]4C(=O)N[C@]5(C(=O)NS(=O)(=O)C6(CF)CC6)C[C@H]5/C=C\CC[C@H](C)C[C@@H](C)[C@H](NC(=O)OC(C)(C)C)C(=O)N4C3)nc(Cl)cc2c1 [Compound 1162, tert-butyl ((2R,6S,7R,9S,13aS,14aR,16aS,Z)-2-((3-chloro-6-methoxyisoquinolin-1-yl)oxy)-14a-(((1-(fluoromethyl)cyclopropyl)sulfonyl)carbamoyl)-7,9-dimethyl-5,16-dioxo-1,2,3,5,6,7,8,9,10,11,13a,14,14a,15,16,16a-hexadecahydrocyclopropa[e]pyrrolo[1,2-a][1,4]diazacyclopentadecin-6-yl)carbamate] | 4.82 to 103 | 4.82 to 103
12 | COc1ccc2c(O[C@@H]3C[C@H]4C(=O)N[C@]5(C(=O)NS(=O)(=O)C6(CF)CC6)C[C@H]5/C=C\CC[C@@H](C)C[C@@H](C)[C@H](NC(=O)OC(C)(C)C)C(=O)N4C3)nc(Cl)cc2c1 [Compound 1163, tert-butyl ((2R,6S,7R,9R,13aS,14aR,16aS,Z)-2-((3-chloro-6-methoxyisoquinolin-1-yl)oxy)-14a-(((1-(fluoromethyl)cyclopropyl)sulfonyl)carbamoyl)-7,9-dimethyl-5,16-dioxo-1,2,3,5,6,7,8,9,10,11,13a,14,14a,15,16,16a-hexadecahydrocyclopropa[e]pyrrolo[1,2-a][1,4]diazacyclopentadecin-6-yl)carbamate] | < 5.46 | < 5.46
13 | COc1ccc2c(O[C@@H]3C[C@H]4C(=O)N[C@]5(C(=O)NS(=O)(=O)C6(CF)CC6)C[C@H]5/C=C\CC[C@H](C)C[C@@H](C)[C@H](NC(=O)OC(C)(C)C(F)(F)F)C(=O)N4C3)nc(Cl)cc2c1 [Compound 1164, 1,1,1-trifluoro-2-methylpropan-2-yl((2R,6S,7R,9S,13aS,14aR,16aS,Z)-2-((3-chloro-6-methoxyisoquinolin-1-yl)oxy)-14a-(((1-(fluoromethyl)cyclopropyl)sulfonyl)carbamoyl)-7,9-dimethyl-5,16-dioxo-1,2,3,5,6,7,8,9,10,11,13a,14,14a,15,16,16a-hexadecahydrocyclopropa[e]pyrrolo[1,2-a][1,4]diazacyclopentadecin-6-yl)carbamate] | 4.82 to 103 | 4.82 to 103
